These are literature values, as cited in patent EP1110914A2, “Water treatment method and apparatus” (ROHM AND HAAS COMPANY, priority 1999, dated 2001).

For this data set the following is noted: in water.

Structures are written as SMILES. Where two headings read alike, the source gives them in different places.

Take `O=C=O` [CO2, carbon dioxide]: where the note is “pressure 101 kPa (1 bar)”, the “CO2 Conc @ 15° C” value was 2,523 ppm, the “CO2 Conc @ 20° C” value is reported as 2,174 ppm and the “CO2 Conc @ 25° C” value was 1,876 ppm. Besides, for the setting “pressure 507 kPa (5 bar)”, the “CO2 Conc @ 15° C” value is listed as 12,613 ppm, the “CO2 Conc @ 20° C” value is listed as 10,868 ppm and the “CO2 Conc @ 25° C” value is 9,381 ppm. Under “pressure 931 kPa (9.2 bar)”, the “CO2 Conc @ 15° C” value is reported as 23,207 ppm, the “CO2 Conc @ 20° C” value is 19,996 ppm and the “CO2 Conc @ 25° C” value is listed as 17,261 ppm.
